{"source": "paper PMC3179953", "about": "“In Mycoplasma hominis the OppA-mediated cytoadhesion depends on its ATPase activity” (BMC Microbiology, 2011)", "biological_target": "T1, OppA^WT (OppA, P100), wild type purified from M. hominis (Metamycoplasma hominis, UniProt Q49551)", "T1 construct": "native lipoprotein, solubilised with N-dodecylmaltoside from membranes and isolated with sepharose-coupled antibody DC10; phosphorylated", "T1 sequence (Q49551 entry or part of it)": "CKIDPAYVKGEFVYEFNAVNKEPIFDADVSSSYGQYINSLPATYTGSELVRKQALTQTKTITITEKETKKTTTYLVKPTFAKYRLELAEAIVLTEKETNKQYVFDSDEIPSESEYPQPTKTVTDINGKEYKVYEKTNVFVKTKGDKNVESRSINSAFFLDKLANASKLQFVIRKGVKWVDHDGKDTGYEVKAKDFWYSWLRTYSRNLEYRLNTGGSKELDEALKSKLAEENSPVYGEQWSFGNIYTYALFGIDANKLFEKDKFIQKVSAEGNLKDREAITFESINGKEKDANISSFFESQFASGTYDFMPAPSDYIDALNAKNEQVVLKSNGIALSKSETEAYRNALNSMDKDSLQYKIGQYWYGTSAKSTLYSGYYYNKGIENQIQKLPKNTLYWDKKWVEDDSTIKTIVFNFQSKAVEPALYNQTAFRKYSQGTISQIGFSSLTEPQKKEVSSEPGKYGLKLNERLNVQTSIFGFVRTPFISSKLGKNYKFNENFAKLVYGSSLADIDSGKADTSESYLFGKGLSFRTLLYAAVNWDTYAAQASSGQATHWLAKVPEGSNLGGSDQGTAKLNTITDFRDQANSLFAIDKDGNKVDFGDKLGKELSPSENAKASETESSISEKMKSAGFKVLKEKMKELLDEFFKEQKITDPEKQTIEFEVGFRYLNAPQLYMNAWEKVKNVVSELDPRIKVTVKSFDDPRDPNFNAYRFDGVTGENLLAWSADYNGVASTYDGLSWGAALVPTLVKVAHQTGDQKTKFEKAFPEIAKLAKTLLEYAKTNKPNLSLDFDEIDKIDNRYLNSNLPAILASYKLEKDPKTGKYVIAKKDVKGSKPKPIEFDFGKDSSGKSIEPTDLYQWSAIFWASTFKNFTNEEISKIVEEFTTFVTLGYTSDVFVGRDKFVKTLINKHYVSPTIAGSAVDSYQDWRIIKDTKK", "assay": "ammonium molybdate ATPase assay, inhibitor preincubated […] min", "format": "biochemical", "details": "200 μM inhibitor", "data": [{"compound": "O=S(=O)(O)c1cc(N=C=S)ccc1/C=C/c1ccc(N=C=S)cc1S(=O)(=O)O", "note": "[DIDS, 4,4'-diisothiocyano-2,2'-stilbene-disulfonic acid]", "values": [{"measurement": "relative ATPase activity at 200 μM", "value": "OppA was neither able to hydrolyze ATP (Figure 3A)"}]}]}
